Results from US4835182A (priority 1987, dated 1989).
Read-outs that look alike come from different tables or passages of the source.

Tests used:
in vivo [1] = conditions: iv, 10 mg/kg
in vivo [2] = test: in vivo
[3] = in vivo
[4] = background; cited from earlier work

SMILES	Kp (in vivo [1])	Kp (in vivo [2])	increase of brain/plasma concentration ratio of active drug versus chlorambucil [3] [%]	entry into the brain [4]
O=C(O)CCCc1ccc(N(CCCl)CCCl)cc1 [chlorambucil]	0.017	0.02		
CC(C)(C)OC(=O)CCCc1ccc(N(CCCl)CCCl)cc1 [tertiary butyl chlorambucil]	0.7	0.7	4100	
N[C@@H](Cc1ccc(N(CCCl)CCCl)cc1)C(=O)O [melphalan]		0.1		only minimally enter the brain
